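Five compound concentrations were applied to cells in 96-well plates for 48 hours; endpoints were derived by simple linear interpolation of the resulting dose-response curve. TGI marks complete inhibition of growth.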 Where a SMILES comes first, the peptide text is derived from it. [ ]: non-standard residue; d: D form. The star is where a group is joined. Phe(4-NO2) = N[CH](Cc1ccc([N+](=O)[O-])cc1)C(=O)O; Boc = CC(C)(C)OC(=O)*; OBn = c1ccc(CO*)cc1
Experiments:
Experiment in all cases: growth of human tumour cells (NCI), 48 h
[1] = tested on: SF-268 CNS
[2] = tested on: SNB-75 CNS
[3] = tested on: MCF7 breast
[4] = tested on: NCI-H460 lung
[5] = tested on: A498 renal
[6] = tested on: NCI-H23 lung
[7] = tested on: SF-295 CNS
[8] = tested on: DU-145 prostate
[9] = tested on: HT29 colon
[10] = tested on: OVCAR-8 ovarian
[11] = tested on: LOX IMVI melanoma

| SMILES | TGI [1] [µM] | TGI [2] [µM] | TGI [3] [µM] | TGI [4] [µM] | TGI [5] [µM] | TGI [6] [µM] | TGI [7] [µM] | TGI [8] [µM] | TGI [9] [µM] | TGI [10] [µM] | TGI [11] [µM] |
| --- | --- | --- | --- | --- | --- | --- | --- | --- | --- | --- | --- |
| Cc1ccc2c(=O)cc(-c3csc4ccccc34)[nH]c2n1 | > 53.2 | > 51.2 | 18.1 | > 33.9 | 1.1 | 2.51 | 0.0101 | 1.09 | 0.0481 | 5.55 | > 100 |
| COc1ccc2c(c1)O[C@@H]1C(O)Oc3cc(OC)c(OC)cc3[C@]1(O)C2=O (some centres undefined) | > 100 | > 100 | > 100 | > 100 | > 100 | > 100 | > 100 | > 100 | > 100 | > 100 | > 100 |
| CC(=O)NNc1nc(C)c(C(/C=C/c2ccc3c(c2)OCO3)=N/Nc2ccccc2)s1 | > 100 | > 100 | > 100 | > 100 | > 100 | > 100 | > 100 | > 100 | > 100 | > 100 | > 100 |
| COc1cc2c3cc1Oc1c(O)c(OC)cc4c1[C@H](Cc1ccc(cc1)Oc1cc(ccc1O)C[C@H]3N(C)CC2)N(C)CC4 | 47.3 | 43 | 44.4 | 26.8 | 31.5 | 51.8 | 31.3 | 37.5 | 18.5 | 37.3 | 17.8 |
| Oc1ccc(Cl)cc1C1=N/C(=N\CN2CCN(C/N=C3/N=C(c4cc(Cl)ccc4O)CC(c4ccccc4)N3)CC2)NC(c2ccccc2)C1 (centres undefined) | > 100 | 96.8 | > 100 | > 100 | > 100 | > 100 | 91.7 | > 100 | > 100 | > 100 | > 100 |
| CC(C)(CN)CN | > 100 | > 100 | > 100 | > 100 | > 100 | > 100 | > 100 | > 100 | > 100 | > 100 | > 100 |
| OC(C1CCC=NN1C(O)(C(F)(F)F)C(F)(F)F)(C(F)(F)F)C(F)(F)F (centres undefined) | > 10 | > 10 | > 10 | > 10 | > 10 | > 10 | > 10 | > 10 | > 10 | > 10 | > 10 |
| N=C(N)SCCON1C(=O)c2ccccc2C1=O | > 100 | > 100 | > 100 | > 100 | > 100 | > 100 | > 100 | > 100 | > 100 | > 100 | > 100 |
| O=C(NCCN(CCNC(=O)c1cccc(=O)n1O)CCN(CCNC(=O)c1cccc(=O)n1O)CCNC(=O)c1cccc(=O)n1O)c1cccc(=O)n1O | > 100 | > 100 | > 100 | > 100 | > 100 | > 100 | > 100 | > 100 | > 100 | > 100 | > 100 |
| Cn1c(=O)c2c(nc(NCCCCl)n2CC(=O)O)n(C)c1=O | > 100 | > 100 | > 100 | > 100 | > 100 | > 100 | > 100 | > 100 | > 100 | > 100 | > 100 |
| Cc1c(C)c(C)c(-n2[nH]c(=O)n(C)c2=O)c(C)c1C | > 100 | > 100 | > 100 | > 100 | > 100 | > 100 | > 100 | > 100 | > 100 | > 100 | > 100 |
| c1ccc(CNc2c3c(nc4ccccc24)CCC3)cc1 | 46.6 | 43.5 | 30.9 | 25 | 31.7 | 46.2 | 22 | 62.5 | 50.1 | 31.7 | 28.4 |
| CC(=O)O/C=C\OC1CCCC1(c1ccccc1)c1ccccc1 (centres undefined) | 10.3 | 11.5 | 5.42 | 26.6 | 32.9 | 8.11 | 23 | 13.7 | 8.71 | 7.3 | 3.14 |
| O=c1[nH]nc(Cc2ccccc2)n1/N=C/c1c[nH]c2ccccc12 | 88.1 | 51.3 | > 100 | > 100 | > 100 | > 100 | > 100 | > 100 | > 100 | > 100 | > 100 |
| COc1cccc(N2C(=O)C3c4[nH]c5ccccc5c4C4c5ccccc5CCC4C3C2=O)c1 (centres undefined) | > 10 | 6.3 | > 10 | > 10 | 8.53 | > 10 | > 10 | > 10 | > 10 | 9.9 | > 10 |
| CN(C)C(=S)N/N=C\C=N/NC(=S)N(C)C | > 20.2 | > 100 | > 100 | > 100 | 34.5 | > 58.8 | > 32.1 | > 40.7 | > 100 | > 100 | > 100 |
| COC(=O)CCC(NC(=O)OC(C)(C)C)C(=O)NC(Cc1ccc([N+](=O)[O-])cc1)C(=O)NCC(=O)OCc1ccccc1 (centres undefined) (Boc-Glu(OMe)-[Phe(4-NO2)]-Gly-OBn; configuration not given here) | > 100 | 48.4 | > 100 | > 100 | > 100 | > 100 | > 74.1 | > 100 | > 100 | > 100 | > 86.3 |
| CCN1CC(C)Cn2c(=O)[nH]c3cc(Br)cc1c32 (centres undefined) | > 100 | 48.3 | 87.4 | > 100 | 80.3 | > 100 | > 100 | > 100 | > 100 | > 100 | > 100 |
| COc1ccc2nc3cc(Cl)ccc3c(NCCCCCC(=O)NC(COc3cnc4c(ccc5cccnc54)c3)COc3cnc4c(ccc5cccnc54)c3)c2c1 | 40.2 | 4.78 | 17.7 | 23.1 | 62.8 | > 100 | 55.5 | 23.4 | > 100 | > 100 | 86.4 |

Reference: PubChem BioAssay (NCI)
